Key:
20S proteasome = conditions: potency comparable to belactosins A and C; cited from earlier work
[1] = system: MCF10A cell line (normal breast epithelial cells); assay: Cytotoxicity, standard MTT colorimetric assay, MCF10A; assay type: cell-based; conditions: read-out: IC50 MCF10A
[2] = system: MCF-7 cell line (breast cancer); assay: Cytotoxicity, standard MTT colorimetric assay, MCF-7; assay type: cell-based; conditions: read-out: IC50 MCF-7, MCF-7 breast cancer cells

In the case of CC[C@H](C)[C@H](NC(=O)[C@@H](NC(=O)C1OC(=O)C1C(C)C)C(C)C)C(=O)O (single isomer, unassigned; (-)) [(−)-1, cystargolide A], the “activity as 20S proteasome inhibitors” value (20S proteasome) is listed as “exhibited activity as 20S proteasome inhibitors”, the IC50 [1] is listed as over 100 µM and the IC50 [2] is listed as 58 ± 9.5 µM.

For CC(C)C1C(=O)OC1C(=O)N[C@H](C(=O)N[C@H](C(=O)O)C(C)C)C(C)C (single isomer, unassigned; (-)) [(−)-2, cystargolide B], the “activity as 20S proteasome inhibitors” value (20S proteasome) is listed as “exhibited activity as 20S proteasome inhibitors”, the IC50 [1] is listed as over 100 µM and the IC50 [2] is listed as 84.7 ± 18.6 µM.
